Experimental data reported in US8710064B2, “2-aryl-4-quinazolinones and their pharmaceutical compositions” (China Medical University, priority 2011, dated 2014).
pIC50: −log10 of the molar value.

Assays:
[1] = system: C6 glioma cells; experiment: trypan blue exclusion cell death assay, C6 glioma cells; assay type: cell-based, rat; conditions: 60 nM, at the 72nd hour, p<0.05 versus control
Method: (§1) Cell viability was also determined by trypan-blue exclusion assay. Cells were seeded in 6-well plates (2×10^4/well) for trypan blue exclusion assay, and incubated for 24 hours at 37° C. Culture medium containing test compound or DMSO (0.006%) was added to each well, and cells were incubated at 37° C. At indicated time points (0, 24, 48, 72 and 96 hr), cells were suspended with 0.05% trypsin-EDTA, and stained with trypan-blue dye (0.4%) (Sigma). The cell viability was evaluated by the percentage of death relative to the total cell, and cell growth curve was determined by number of live cells relative to the total number of cells.
To investigate the glioma cell death induced by MJ-66, cell viability was assessed by trypan blue exclusion assay. C6 and U87 glioma cells treated with MJ-66 (30, 60, 90 nM) or DMSO (0.009%) for 0, 24, 48, 72 and 96 hours (hr) were observed under bright field microscope (FIG. 4A). The percentages of cell death and cell growth curve were determined by trypan blue assay followed by cell counting (mean±SEM, n=3). Relative to total cell number, trypan blue positive cells were defined as dead cells.

[2] = system: rat primary glia cells; experiment: MTS cell viability assay, rat primary glia cells; assay type: cell-based; conditions: 0.00625-1 μM
Method: (§2) The human glioma cell lines U87, U251, T98G, U373, and rat glioma cell line RT2 provided by Dr. Michael Hsiao (Genomics Research Center, Academia Sinica, Taiwan) were cultured in Dulbecco's Modified Eagle medium (DMEM) (Caisson) supplemented with 10% fetal bovine serum (FBS) (Sigma-Aldrich), 2 mM L-glutamine (Caisson), 100 U/ml penicillin, and 100 μg/ml streptomycin (Caisson). The rat glioma C6 cell line provided by Dr. Shun-Fen Tzeng (National Cheng Kung University, Taiwan) was cultured in DMEM/F12 (Caisson) supplemented with 10% fetal bovine serum, 2 mM L-glutamine, 100 U/ml penicillin, and 100 μg/ml streptomycin. […] Cell proliferation was determined by MTS (tetrazolium compound, 3-(4,5-dimethylthiazol-2-yl)-5-(3-carboxymethoxyphenyl)-2-(4-sulfophenyl)-2H-tetrazolium) assay (Promega). […] The absorbance of soluble formazan was measured at 490 nm with microplate reader (Molecular device). The cell viability was determined by the percentage of the absorption relative to untreated control. […] To investigate the influence of MJ-66 on normal glia such as human glia cell line SVGP12 and rat primary glia cells, cells were treated with different concentrations of MJ-66 in vitro (0.00625, 0.0125, 0.025, 0.05, 0.1 and 1 μM) for different time durations (0, 6, 12 and 24 hours) and the cell viability was assessed by MTS assay. […]

[3] = system: CH27; experiment: trypan blue exclusion assay, CH27 cells; assay type: cell-based; conditions: CH27 human lung squamous carcinoma
Method: CH27 cells (Human lung squamous carcinoma) were grown in monolayer culture in Dulbecco's modified Eagle's medium (DMEM; Life Technologies, Rockville, Md., USA) containing 5% FBS (HyClone, Logan, Utah, USA), 100 U/ml penicillin, […] streptomycin (Gibco BRL, Rockville, Md., USA) and 2 mM glutamine (Merck, Darmstadt, Germany).
as §1
(§3) The anti-proliferation effects of Compounds 17-31 on M21, CH27, H460, Hep3B and HSC-3 cells were evaluated by the trypan blue exclusion assay.

[4] = system: HSC-3; experiment: trypan blue exclusion assay, HSC-3 cells; assay type: cell-based, human; conditions: HSC-3 human squamous carcinoma; trypan blue exclusion assay
Method: The HSC-3 (human oral squamous cell carcinoma) were cultured in 1:1 Dulbecco's Modified Eagle's Medium (DMEM) and Ham's Nutrient Mixture F-12, containing 10% FBS (HyClone, Logan, Utah, USA), 100 U/ml penicillin, 100 μg/ml streptomycin (Gibco BRL, Rockville, Md., USA) and 2 mM glutamine (Merck, Darmstadt, Germany).
as §1, §3

[5] = system: human glia cell line SVGP12; experiment: MTS cell viability assay, normal glia cell line SVGP12; assay type: cell-based; conditions: 0.00625-1 μM
Method: as §2

## O=c1[nH]c(-c2cccc3ccccc23)nc2ccc(N3CCCC3)cc12 [Compound 23, 6-(Pyrrolidin-1-yl)-2-(naphthalen-1-yl)quinazolin-4-one]
[1]
  percentage of dead cells, C6: significantly induced
[2]
  cell viability of rat glia cells: inhibited
[3]
  pIC50: 7.28
[4]
  pIC50: 7.39
[5]
  cell viability of SVGP12: inhibited
